Columns and labels:
[1] = target: T1, HIS-TGFβR1 T204D (Homo sapiens, UniProt P36897, T204D); test: HTRF probe-displacement assay with HIS-TGFβR1 T204D; type: binding; conditions: 1 nM HIS-TGFβR1 T204D, labeled probe at Kd, 1 hour at room temperature
T1 sequence (P36897 34-503 T204D): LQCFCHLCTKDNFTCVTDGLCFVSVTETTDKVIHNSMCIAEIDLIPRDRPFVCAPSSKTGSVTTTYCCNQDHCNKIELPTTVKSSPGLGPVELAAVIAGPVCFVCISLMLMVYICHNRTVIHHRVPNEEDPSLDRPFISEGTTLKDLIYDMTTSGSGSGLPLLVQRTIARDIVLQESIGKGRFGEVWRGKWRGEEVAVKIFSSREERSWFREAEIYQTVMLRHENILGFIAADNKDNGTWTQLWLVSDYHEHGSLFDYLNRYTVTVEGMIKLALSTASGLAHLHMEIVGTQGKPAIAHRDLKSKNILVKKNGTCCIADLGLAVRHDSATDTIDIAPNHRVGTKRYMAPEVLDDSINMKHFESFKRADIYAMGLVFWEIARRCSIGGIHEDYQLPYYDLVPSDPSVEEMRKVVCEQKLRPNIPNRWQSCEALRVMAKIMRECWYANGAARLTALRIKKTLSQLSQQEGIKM
Procedure, shortened: (§1)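 Binding read as HTRF probe displacement with 1 nM HIS-tagged kinase, 0.2 nM anti-HIS antibody, labelled probe at Kd and 0.5% DMSO, 1 h at room temperature (Ex 340, Em 520/495 nm). Eleven-point dose response normalised to no-enzyme and vehicle controls; IC50 from non-linear regression.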

[2] = target: HIS-TGFβR2 WT (Homo sapiens, UniProt P37173); test: HTRF probe-displacement assay with HIS-TGFβR2 WT; type: binding; conditions: 1 nM HIS-TGFβR2 WT, labeled probe at Kd, 1 hour at room temperature
Sequence of HIS-TGFβR2 WT (P37173 23-567): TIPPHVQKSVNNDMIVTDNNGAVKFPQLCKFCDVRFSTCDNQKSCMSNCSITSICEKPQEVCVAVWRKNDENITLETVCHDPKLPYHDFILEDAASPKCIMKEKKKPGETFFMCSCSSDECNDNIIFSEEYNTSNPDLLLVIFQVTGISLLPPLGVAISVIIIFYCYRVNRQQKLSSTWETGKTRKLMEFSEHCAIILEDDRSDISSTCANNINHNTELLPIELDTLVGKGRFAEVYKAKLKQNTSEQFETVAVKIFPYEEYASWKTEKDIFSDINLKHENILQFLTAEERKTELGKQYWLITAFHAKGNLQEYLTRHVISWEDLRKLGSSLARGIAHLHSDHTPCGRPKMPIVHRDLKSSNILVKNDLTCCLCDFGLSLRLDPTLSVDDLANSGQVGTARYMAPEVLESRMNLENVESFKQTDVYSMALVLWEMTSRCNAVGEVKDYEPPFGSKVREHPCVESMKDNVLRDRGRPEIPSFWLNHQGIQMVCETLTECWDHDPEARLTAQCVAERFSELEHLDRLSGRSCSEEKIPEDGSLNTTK
Procedure, shortened: as §1

IC50 [1] [µM]	IC50 [2] [µM]	Structure (SMILES)
0.001	2.65	O=C(NC1CC1)c1cnc2ccc(-c3c(-c4ccc(F)cc4)n[nH]c3C3CC3)cn12 [Example 92, N-cyclopropyl-6-(5-cyclopropyl-3-(4-fluorophenyl)-1H-pyrazol-4-yl)imidazo[1,2-a]pyridine-3-carboxamide]
0.001	0.806	Cn1nc(-c2ccc(F)cc2)c(-c2ccc3ncc(C(N)=O)n3c2)c1C1CC1 [Example 94, 6-(5-cyclopropyl-3-(4-fluorophenyl)-1-methyl-1H-pyrazol-4-yl)imidazo[1,2-a]pyridine-3-carboxamide]
0.001	6.36	NC(=O)c1cnc2ccc(-c3c(-c4ccc(Cl)cc4)n[nH]c3C3CC3)cn12 [Example 97, 6-(3-(4-chlorophenyl)-5-cyclopropyl-1H-pyrazol-4-yl)imidazo[1,2-a]pyridine-3-carboxamide]
0.001	2.98	Cc1cc(-c2n[nH]c(C3CC3)c2-c2ccc3ncc(C#N)n3c2)ccc1F [Example 99, 6-(5-cyclopropyl-3-(4-fluoro-3-methylphenyl)-1H-pyrazol-4-yl)imidazo[1,2-a]pyridine-3-carbonitrile]
0.001	0.094	Cc1cc(-c2n[nH]c(C3CC3)c2-c2ccc3ncc(C(N)=O)n3c2)ccc1F [Example 100, 6-(5-cyclopropyl-3-(4-fluoro-3-methylphenyl)-1H-pyrazol-4-yl)imidazo[1,2-a]pyridine-3-carboxamide]
0.001	6.66	NC(=O)c1cnc2ccc(-c3c(-c4ccc(F)cc4)n[nH]c3C(F)(F)F)cn12 [Example 106, 6-(3-(4-fluorophenyl)-5-(trifluoromethyl)-1H-pyrazol-4-yl)imidazo[1,2-a]pyridine-3-carboxamide]
0.002	0.577	NC(=O)c1cnc2ccc(-c3c(-c4ccc(F)cc4)nn4c3COCC4)cn12 [Example 111, 6-(2-(4-fluorophenyl)-6,7-dihydro-4H-pyrazolo[5,1-c][1,4]oxazin-3-yl)imidazo[1,2-a]pyridine-3-carboxamide]
0.011	0.105	CC(=O)Nc1cc(-c2c(-c3ccc(F)cc3)nn3c2COCC3)ccn1 [Example 112, N-(4-(2-(4-fluorophenyl)-6,7-dihydro-4H-pyrazolo[5,1-c][1,4]oxazin-3-yl)pyridin-2-yl)acetamide]
0.001	0.761	Cc1cccc(-c2n[nH]c(C(C)C)c2-c2ccc3ncc(C#N)n3c2)n1 [Example 114, 6-(5-isopropyl-3-(6-methylpyridin-2-yl)-1H-pyrazol-4-yl) imidazo [1,2-a]pyridine-3-carbonitrile]
0.001	0.009	Cc1cccc(-c2n[nH]c(C(C)C)c2-c2ccc3ncc(C(N)=O)n3c2)n1 [Example 115, 6-(5-isopropyl-3-(6-methylpyridin-2-yl)-1H-pyrazol-4-yl)imidazo[1,2-a]pyridine-3-carboxamide]
0.001	5.77	Cc1cccc(-c2nn(C)c(C(C)C)c2-c2ccc3ncc(C#N)n3c2)n1 [Example 116, 6-(5-isopropyl-1-methyl-3-(6-methylpyridin-2-yl)-1H-pyrazol-4-yl)imidazo[1,2-a]pyridine-3-carbonitrile]
0.001	2.69	Cc1cccc(-c2n[nH]c(C(C)C)c2-c2ccc3nccn3c2)n1 [Example 118, 6-(5-isopropyl-3-(6-methylpyridin-2-yl)-1H-pyrazol-4-yl)imidazo[1,2-a]pyridine]
0.003	4.95	Cc1cccc(-c2nn(C)c(C(C)C)c2-c2ccc3nccn3c2)n1 [Example 119, 6-(5-isopropyl-1-methyl-3-(6-methylpyridin-2-yl)-1H-pyrazol-4-yl)imidazo[1,2-a]pyridine]
0.001	0.216	Cc1cccc(-c2n[nH]c(C3CC3)c2-c2ccc3ncc(C#N)n3c2)n1 [Example 121, 6-(5-cyclopropyl-3-(6-methylpyridin-2-yl)-1H-pyrazol-4-yl)imidazo[1,2-a]pyridine-3-carbonitrile]
0.001	0.004	Cc1cccc(-c2n[nH]c(C3CC3)c2-c2ccc3ncc(C(N)=O)n3c2)n1 [Example 122, 6-(5-cyclopropyl-3-(6-methylpyridin-2-yl)-1H-pyrazol-4-yl)imidazo[1,2-a]pyridine-3-carboxamide]
0.001	0.469	Cc1cccc(-c2n[nH]c(C3CC3)c2-c2ccc3nccn3c2)n1 [Example 123, 6-(5-cyclopropyl-3-(6-methylpyridin-2-yl)-1H-pyrazol-4-yl)imidazo[1,2-a]pyridine]
0.001	2.06	CCc1[nH]nc(-c2cccc(C)n2)c1-c1ccc2ncc(C#N)n2c1 [Example 124, 6-(5-ethyl-3-(6-methylpyridin-2-yl)-1H-pyrazol-4-yl)imidazo[1,2-a]pyridine-3-carbonitrile]
0.001	0.013	CCc1[nH]nc(-c2cccc(C)n2)c1-c1ccc2ncc(C(N)=O)n2c1 [Example 125, 6-(5-ethyl-3-(6-methylpyridin-2-yl)-1H-pyrazol-4-yl)imidazo[1,2-a]pyridine-3-carboxamide]
0.001	3.15	CCc1[nH]nc(-c2cccc(C)n2)c1-c1ccc2nccn2c1 [Example 126, 6-(5-ethyl-3-(6-methylpyridin-2-yl)-1H-pyrazol-4-yl)imidazo[1,2-a]pyridine]
0.001	0.128	CCc1c(-c2ccc3ncc(C(N)=O)n3c2)c(-c2cccc(C)n2)nn1C [Example 127, 6-(5-ethyl-1-methyl-3-(6-methylpyridin-2-yl)-1H-pyrazol-4-yl)imidazo[1,2-a]pyridine-3-carboxamide]
0.027	13.1	OCc1[nH]nc(-c2ccc(F)cc2)c1-c1ccc2nccn2c1 [Example 134, (3-(4-fluorophenyl)-4-(imidazo[1,2-a]pyridin-6-yl)-1H-pyrazol-5-yl)methanol]
0.001	4.47	Cc1cccc(-c2n[nH]c(CO)c2-c2ccc3nccn3c2)n1 [Example 141, (4-(imidazo[1,2-a]pyridin-6-yl)-3-(6-methylpyridin-2-yl)-1H-pyrazol-5-yl)methanol]

— patent publication US20190292179A1 (BRISTOL-MYERS SQUIBB COMPANY, priority 2016, published 2019)
